# Measured values from patent US8653263B2 (Janssen Pharmaceutica, priority 2009, dated 2014).
# Target: human orexin-2 receptor (Homo sapiens (Human), UniProt O43614)
# Assay: Human orexin 2 receptor radioligand binding ([3H]-EMPA competition)
# Details: HEK293 cells stably expressing human orexin-2 receptor; [3H]-EMPA 5 nM final; apparent Ki=IC50/(1+C/Kd), Kd=2 nM; read-out: OR 2 Ki
# human orexin-2 receptor, sequence (O43614 whole entry): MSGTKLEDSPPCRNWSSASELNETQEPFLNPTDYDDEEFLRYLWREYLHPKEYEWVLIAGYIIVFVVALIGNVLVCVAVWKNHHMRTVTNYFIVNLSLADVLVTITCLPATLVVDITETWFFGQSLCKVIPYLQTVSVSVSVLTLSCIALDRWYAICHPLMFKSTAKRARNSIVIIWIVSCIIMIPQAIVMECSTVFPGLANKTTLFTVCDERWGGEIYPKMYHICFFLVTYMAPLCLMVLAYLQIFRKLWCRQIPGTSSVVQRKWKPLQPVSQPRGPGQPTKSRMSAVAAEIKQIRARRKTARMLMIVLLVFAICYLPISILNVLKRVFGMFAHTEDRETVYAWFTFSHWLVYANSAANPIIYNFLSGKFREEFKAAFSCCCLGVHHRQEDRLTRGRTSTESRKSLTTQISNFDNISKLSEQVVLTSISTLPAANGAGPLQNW
row,Structure (SMILES),Ki
1,"O=C(c1ccccc1-c1cccs1)N1CC2CN(c3nccc(-c4ccccc4)n3)CC2C1 (stereo not drawn) [Example 22, 2-(4-Phenylpyrimidin-2-yl)-5-[(2-thiophen-2-ylphenyl)carbonyl]octahydro-pyrrolo[3,4-c]pyrrole]",70 nM
2,"O=C(c1ccccc1-c1ccc(F)cc1)N1CC2CN(c3cnc4ccccc4n3)CC2C1 (stereo not drawn) [Example 28, 2-{5-[(4′-Fluorobiphenyl-2-yl)carbonyl]hexahydropyrrolo[3,4-c]pyrrol-2(1H)-yl}quinoxaline]",575 nM
3,"Cc1ccc(-c2ncccn2)c(C(=O)N2CC3CN(c4nc(C)cc(C)n4)CC3C2)c1 (stereo not drawn) [Example 102, 2-(4,6-Dimethylpyrimidin-2-yl)-5-[(5-methyl-2-pyrimidin-2-ylphenyl)carbonyl]octahydropyrrolo[3,4-c]pyrrole]",17 nM
4,"COc1cc(OC)nc(N2CC3CN(C(=O)c4ccccc4-n4nccn4)CC3C2)n1 (stereo not drawn) [Example 84, 2-(4,6-Dimethoxypyrimidin-2-yl)-5-{[2-(2H-1,2,3-triazol-2-yl)phenyl]carbonyl}octahydropyrrolo[3,4-c]pyrrole]",53 nM
5,"Cc1cc(C)nc(N2CC3CN(C(=O)c4cccc(C)c4C)CC3C2)n1 (stereo not drawn) [Example 219, 2-[(2,3-Dimethylphenyl)carbonyl]-5-(4,6-dimethylpyrimidin-2-yl)octahydropyrrolo[3,4-c]pyrrole]",404 nM
6,"COc1cc(OC)nc(N2CC3CN(C(=O)c4ccccc4-n4cccn4)CC3C2)n1 (stereo not drawn) [Example 78, 2-(4,6-Dimethoxypyrimidin-2-yl)-5-{[2-(1H-pyrazol-1-yl)phenyl]carbonyl}octahydro-pyrrolo[3,4-c]pyrrole]",550 nM
7,"COc1ccc(C(=O)N2CC3CN(c4cc(N(C)C)nc(C)n4)CC3C2)c(-n2nccn2)c1 (stereo not drawn) [Example 391, (5-(6-(Dimethylamino)-2-methylpyrimidin-4-yl)hexahydropyrrolo[3,4-c]pyrrol-2(1H)-yl)(4-methoxy-2-(2H-1,2,3-triazol-2-yl)phenyl)methanone]",28 nM
8,"Cc1nc(N2CC3CN(C(=O)c4ccccc4-c4nnc[nH]4)CC3C2)nc(C)c1C (stereo not drawn) [Example 305, 2-{[2-(4H-1,2,4-Triazol-3-yl)phenyl]carbonyl}-5-(4,5,6-trimethylpyrimidin-2-yl)octahydropyrrolo[3,4-c]pyrrole]",7 nM
9,"O=C(c1ccccc1-n1nccn1)N1CC2CN(c3nc(Cl)ncc3F)CC2C1 (stereo not drawn) [Example 291, 2-(2-Chloro-5-fluoropyrimidin-4-yl)-5-{[2-(2H-1,2,3-triazol-2-yl)phenyl]carbonyl}octahydropyrrolo[3,4-c]pyrrole]",266 nM
10,"Cc1ncnc(N2CC3CN(C(=O)c4c(F)cccc4-n4nccn4)CC3C2)n1 (stereo not drawn) [Example 303, 2-{[2-Fluoro-6-(2H-1,2,3-triazol-2-yl)phenyl]carbonyl}-5-(4-methyl-1,3,5-triazin-2-yl)octahydropyrrolo[3,4-c]pyrrole]",1700 nM
11,"COc1cc(OC)nc(N2CC3CN(C(=O)c4nc(C)sc4-c4ccccc4F)CC3C2)n1 (stereo not drawn) [Example 142, 2-(4,6-Dimethoxypyrimidin-2-yl)-5-{[5-(2-fluorophenyl)-2-methyl-1,3-thiazol-4-yl]carbonyl}octahydropyrrolo[3,4-c]pyrrole]",315 nM
12,"Cc1cc(C)nc(N2CC3CN(C(=O)c4ccccc4-c4ncc[nH]4)CC3C2)n1 (stereo not drawn) [Example 182, [5-(4,6-Dimethyl-pyrimidin-2-yl)-hexahydro-pyrrolo[3,4-c]pyrrol-2-yl]-[2-(1H-imidazol-2-yl)-phenyl]-methanone]",2200 nM
13,"Cc1cc(C)nc(N2CC3CN(C(=O)c4nc(C)sc4-c4ccccc4F)CC3C2)n1 (stereo not drawn) [Example 132, 2-(4,6-Dimethylpyrimidin-2-yl)-5-{[5-(2-fluorophenyl)-2-methyl-1,3-thiazol-4-yl]carbonyl}octahydropyrrolo[3,4-c]pyrrole]",125 nM
14,"COc1ccc(C(=O)N2CC3CN(c4nccc(OC)n4)CC3C2)c(OC)c1 (stereo not drawn) [Example 179, (2,4-Dimethoxy-phenyl)-[5-(4-methoxy-pyrimidin-2-yl)-hexahydro-pyrrolo[3,4-c]pyrrol-2-yl]-methanone]",9000 nM
15,"Cc1cc(N2CC3CN(C(=O)c4ccccc4-n4nccn4)CC3C2)nc(C)n1 (stereo not drawn) [Example 122, 2-(2,6-Dimethylpyrimidin-4-yl)-5-{[2-(2H-1,2,3-triazol-2-yl)phenyl]carbonyl}octahydropyrrolo[3,4-c]pyrrole]",865 nM
16,"Cc1cccc(N2CC3CN(C(=O)c4ccccc4-c4ccccc4)CC3C2)n1 (stereo not drawn) [Example 173, 2-(Biphenyl-2-ylcarbonyl)-5-(6-methylpyridin-2-yl)octahydropyrrolo[3,4-c]pyrrole]",950 nM
17,"COc1ccnc(N2CC3CN(C(=O)c4ccccc4OC)CC3C2)n1 (stereo not drawn) [Example 199, (2-Methoxy-phenyl)-[5-(4-methoxy-pyrimidin-2-yl)-hexahydro-pyrrolo[3,4-c]pyrrol-2-yl]-methanone]",3780 nM
18,"O=C(c1cccc(F)c1-n1nccn1)N1CC2CN(c3ncc4cc(F)ccc4n3)CC2C1 (stereo not drawn) [Example 242, (3-Fluoro-2-(2H-1,2,3-triazol-2-yl)phenyl)(5-(6-fluoroquinazolin-2-yl)hexahydropyrrolo[3,4-c]pyrrol-2(1H)-yl)methanone]",39 nM

row,Structure (SMILES),Ki
1,"Cc1cc(N2CC3CN(C(=O)c4ccccc4-n4nccn4)CC3C2)nc(C(F)(F)F)n1 (stereo not drawn) [Example 97, 2-[6-Methyl-2-(trifluoromethyl)pyrimidin-4-yl]-5-{[2-(2H-1,2,3-triazol-2-yl)phenyl]carbonyl}octahydropyrrolo[3,4-c]pyrrole]",25 nM
2,"Cc1cc(C)nc(N2CC3CN(C(=O)c4cccc(F)c4I)CC3C2)n1 (stereo not drawn) [Example 232, (5-(4,6-Dimethylpyrimidin-2-yl)hexahydropyrrolo[3,4-c]pyrrol-2(1H)-yl)(3-fluoro-2-iodophenyl)methanone]",52 nM
3,"Cc1cc(C)nc(N2CC3CN(C(=O)c4ncoc4-c4ccccc4)CC3C2)n1 (stereo not drawn) [Example 79, 2-(4,6-Dimethylpyrimidin-2-yl)-5-[(5-phenyl-1,3-oxazol-4-yl)carbonyl]octahydro-pyrrolo[3,4-c]pyrrole]",480 nM
4,"Cc1cc(C)nc(N2CC3CN(C(=O)c4nc(C)sc4-c4ccc(F)cc4)CC3C2)n1 (stereo not drawn) [Example 254, 2-(4,6-Dimethylpyrimidin-2-yl)-5-{[5-(4-fluorophenyl)-2-methyl-1,3-thiazol-4-yl]carbonyl}octahydropyrrolo[3,4-c]pyrrole]",2200 nM
5,"O=C(c1ccccc1-c1ccc(C(F)(F)F)cc1)N1CC2CN(c3nccc(-c4ccccc4)n3)CC2C1 (stereo not drawn) [Example 196, [5-(4-Phenyl-pyrimidin-2-yl)-hexahydro-pyrrolo[3,4-c]pyrrol-2-yl]-(4′-trifluoromethyl-biphenyl-2-yl)-methanone]",10000 nM
6,"Cc1cc(C)nc(N2CC3CN(C(=O)c4ccc(F)cc4-c4ncccc4F)CC3C2)n1 (stereo not drawn) [Example 346, (5-(4,6-Dimethylpyrimidin-2-yl)hexahydropyrrolo[3,4-c]pyrrol-2(1H)-yl)(4-fluoro-2-(3-fluoropyridin-2-yl)phenyl)methanone]",25 nM
7,"Cc1cc(N2CC3CN(C(=O)c4nc(C)sc4-c4ccc(F)cc4)CC3C2)nc(C)n1 (stereo not drawn) [Example 253, 2-(2,6-Dimethylpyrimidin-4-yl)-5-{[5-(4-fluorophenyl)-2-methyl-1,3-thiazol-4-yl]carbonyl}octahydropyrrolo[3,4-c]pyrrole]",5000 nM
8,"COc1ccnc(N2CC3CN(C(=O)c4ccccc4-n4nccn4)CC3C2)n1 (stereo not drawn) [Example 156, 2-(4-Methoxypyrimidin-2-yl)-5-{[2-(2H-1,2,3-triazol-2-yl)phenyl]carbonyl}octahydropyrrolo[3,4-c]pyrrole]",39 nM
9,"Cc1nc2ccccc2nc1N1CC2CN(C(=O)c3ccccc3-c3nnc[nH]3)CC2C1 (stereo not drawn) [Example 95, 2-Methyl-3-[5-{[2-(4H-1,2,4-triazol-3-yl)phenyl]carbonyl}hexahydropyrrolo[3,4-c]pyrrol-2(1H)-yl]quinoxaline]",215 nM
10,"Cc1cc(C)nc(N2CC3CN(C(=O)c4cccnc4C(F)(F)F)CC3C2)n1 (stereo not drawn) [Example 233, 2-(4,6-Dimethylpyrimidin-2-yl)-5-{[2-(trifluoromethyl)pyridin-3-yl]carbonyl}octahydropyrrolo[3,4-c]pyrrole]",2100 nM
11,"Cc1ccnc(N2CC3CN(C(=O)c4ccccc4-c4cccs4)CC3C2)n1 (stereo not drawn) [Example 32, 2-(4-Methylpyrimidin-2-yl)-5-[(2-thiophen-2-ylphenyl)carbonyl]octahydro-pyrrolo[3,4-c]pyrrole]",47 nM
12,"Cc1cc(C)nc(N2CC3CN(C(=O)c4ccccc4OC(F)(F)F)CC3C2)n1 (stereo not drawn) [Example 274, (5-(4,6-Dimethylpyrimidin-2-yl)hexahydropyrrolo[3,4-c]pyrrol-2(1H)-yl)(2-(trifluoromethoxy)phenyl)methanone]",61 nM
13,"O=C(c1ccccc1-c1cccs1)N1CC2CN(c3ccc4ccccc4n3)CC2C1 (stereo not drawn) [Example 33, 2-{5-[(2-Thiophen-2-ylphenyl)carbonyl]hexahydropyrrolo[3,4-c]pyrrol-2(1H)-yl}quinoline]",250 nM
14,"COc1ccc(-n2nccn2)c(C(=O)N2CC3CN(c4cnc5cc(F)c(F)cc5n4)CC3C2)c1 (stereo not drawn) [Example 245, (5-(6,7-Difluoroquinoxalin-2-yl)hexahydropyrrolo[3,4-c]pyrrol-2(1H)-yl)(5-methoxy-2-(2H-1,2,3-triazol-2-yl)phenyl)methanone]",58 nM
15,"COc1ccccc1S(=O)(=O)N1CC2CN(c3cnc4ccccc4n3)CC2C1 (stereo not drawn) [Example 362, 2-(5-((2-Methoxyphenyl)sulfonyl)hexahydropyrrolo[3,4-c]pyrrol-2(1H)-yl)quinoxaline]",1800 nM
16,"COc1ccc(C(=O)N2CC3CN(c4cc(N(C)C)ncn4)CC3C2)c(-n2nccn2)c1 (stereo not drawn) [Example 390, (5-(6-(Dimethylamino)pyrimidin-4-yl)hexahydropyrrolo[3,4-c]pyrrol-2(1H)-yl)(4-methoxy-2-(2H-1,2,3-triazol-2-yl)phenyl)methanone]",190 nM
17,"Cc1cc(C)nc(N2CC3CN(C(=O)c4cccc5c4OCCCO5)CC3C2)n1 (stereo not drawn) [Example 334, (3,4-Dihydro-2H-benzo[b][1,4]dioxepin-6-yl)-[5-(4,6-dimethyl-pyrimidin-2-yl)-hexahydro-pyrrolo[3,4-c]pyrrol-2-yl]-methanone]",277 nM
18,Cc1cc(C)nc(N2CC3CN(C(=O)c4cccnc4Br)CC3C2)n1 (stereo not drawn) [Example 234],10000 nM
